The values below come from patent US9606106B2, “NMR-based metabolite screening platform” (THE CHILDREN'S MEDICAL CENTER CORPORATION, priority 2012, dated 2017).

The test relates to BPLER cells. As to the kind of experiment: cell migration assay (dual-chamber with small pores). It counts as cell-based, human. The settings on record: cells transfected with siRNAs against NANS or CMAS, supplemented with NANA. On the procedure: However, NANA is incorporated on the cell surface of several proteins involved in cell adhesion, and loss of NANA was suspected to affect cell motility. Using a cell migration assay, cells were cultured in a dual-chamber containing small pores at the bottom of the top chamber, malignant cells (especially those with metastatic potential) are able to migrate through the pores and form colonies. As expected, shown in FIG. 12 BPLER have an increased migration rate as compared to HMLER cells due to their increased turmorigenic properties. […] To confirm NANA expression directly influences motility, a rescue experiment was performed in which cells transfected with siRNAs against NANS or CMAS were supplemented NANA. […] Monitoring NANA expression could predict the metastatic potential of a cell. In addition both NANS/CMAS are novel key targets to manipulate migration and metastasis.

`CC(=O)N[C@H]1[C@H]([C@H](O)[C@H](O)CO)OC(O)(C(=O)O)C[C@@H]1O` (stereo partly shown) [NANA, N-acetylneuraminic acid]: the “rescue of migration phenotype” value is “partially restore”.
